Results from US20190374506A1, “COMPOSITIONS AND METHODS FOR TREATING CANCER” (BETH ISREAL DEACONESS MEDICAL CENTER, priority 2016, published 2019).

Columns and labels:
PC3 cells (PTEN-null) = assay: Growth curves, colorimetric MTT assay, PC3 cells; format: cell-based, human; conditions: various doses of I3C for 5 Days
Source text: (§1) FIG. 11C provides growth curves of DU145 (PTEN competent) or PC3 cells (PTEN null) treated with various doses of I3C for 5 Days, and then assayed with colorimetric MTT assay (three experiments). Whether targeting WWP1/NEDD4-1, thereby enhancing PTEN dimerization and function, could offer a unique opportunity to treat MYC-driven cancers was investigated. […] As there is no small pharmacological inhibitor currently available to suppress/inhibit WWP1 activity, Indole-3-Carbinol (I3C), a potential WWP1 inhibitor, which suppresses the WWP1 activity through binding to its HECT domain, was used. First, to assess the on-target effects of I3C towards WWP1, Wwp1^−/− MEFs were used. […] Additionally, two independent PTEN stably knocked-down cells were generated.

[1] = test system: PTEN/AKT pathway in PC3 cells (PTEN-null); assay: Western blot analysis of PTEN/AKT pathway in PC3 cells; format: cell-based, human; conditions: different doses of I3C for 3 Days
Protocol: FIG. 11B provides an analysis of effects of I3C on PTEN/AKT pathway in DU145 or PC3 cells by western blot analysis. Cells were treated with different doses of I3C for 3 Days, and followed by western blot analysis. Whether targeting WWP1/NEDD4-1, thereby enhancing PTEN dimerization and function, could offer a unique opportunity to treat MYC-driven cancers was investigated. […] As there is no small pharmacological inhibitor currently available to suppress/inhibit WWP1 activity, Indole-3-Carbinol (I3C), a potential WWP1 inhibitor, which suppresses the WWP1 activity through binding to its HECT domain, was used. First, to assess the on-target effects of I3C towards WWP1, Wwp1^−/− MEFs were used. […] Additionally, two independent PTEN stably knocked-down cells were generated. […] Western Blotting and Immunoprecipitation. For western blotting, cells were lysed in RIPA buffer (Boston BioProducts) supplemented with protease (Roche) and phosphatase (Roche) inhibitor. Proteins were separated on NuPAGE 4-12% Bis-Tris gradient gels (Invitrogen), transferred to polyvinylidine difluoride membranes (Immobilon P, Millipore) and the blots were probed with the indicated antibodies. For immunoprecipitation, PC3, 293T and MEF cells were transfected with the indicated expression vectors by using LIPOFECTAMIN 2000 (Life Technologies). […]

[2] = test system: Wwp1^+/+ and Wwp1^−/− MEFs; assay: Growth curves of Wwp1+/+ and Wwp1-/- MEFs treated with I3C; format: cell-based, mouse; conditions: 100 μM I3C
Protocol: FIG. 10C provides growth curves of Wwp1^+/+ and Wwp1^−/− MEFs treated with 100 μM I3C. Representative pictures of the cells at Day 3 are shown below. Whether targeting WWP1/NEDD4-1, thereby enhancing PTEN dimerization and function, could offer a unique opportunity to treat MYC-driven cancers was investigated. […] As there is no small pharmacological inhibitor currently available to suppress/inhibit WWP1 activity, Indole-3-Carbinol (I3C), a potential WWP1 inhibitor, which suppresses the WWP1 activity through binding to its HECT domain, was used. First, to assess the on-target effects of I3C towards WWP1, Wwp1^−/− MEFs were used. […] Additionally, two independent PTEN stably knocked-down cells were generated. […] At 8 hours post-transfection, cells were trypsinized, resuspended, and seeded in three separate 12-well plates at a final density of 20,000/well. Starting the following day (d0), one plate per day was washed once with PBS, fixed in 10% formalin solution for 10 minutes at room temperature, and kept in PBS at 4° C. On the last day, all of the wells were stained with crystal violet. After lysis with 10% acetic acid, optical density was read at 595 nm.

WWP1 = WWP1 (Homo sapiens, UniProt Q9H0M0); assay: MicroScale Thermophoresis (MST) binding analysis of I3C towards WWP1
Source text: FIG. 10B provides the MST analysis of I3C towards WWP1. […] When I3C was superimposed onto the covalent inhibitor and WWP1 onto NEDD4-1, a model was generated showing I3C-bound WWP1 with the binding pocket formed by residues F577, L630, Y628, C629, N650, and Y656. […] The experiments of this example next confirmed this hypothesis by MicroScale Thermophoresis (MST) binding analysis.

LNCaP cells (PTEN-null) = assay: Cell growth, LNCaP cells; format: cell-based, human
Source text: as §1, with “Whether” for “FIG. 11C provides growth curves of DU145 (PTEN competent) or PC3 cells (PTEN null) treated with various doses of I3C for 5 Days, and then assayed with colorimetric MTT assay (three experiments). Whether”

Sequence of WWP1 (Q9H0M0 whole entry): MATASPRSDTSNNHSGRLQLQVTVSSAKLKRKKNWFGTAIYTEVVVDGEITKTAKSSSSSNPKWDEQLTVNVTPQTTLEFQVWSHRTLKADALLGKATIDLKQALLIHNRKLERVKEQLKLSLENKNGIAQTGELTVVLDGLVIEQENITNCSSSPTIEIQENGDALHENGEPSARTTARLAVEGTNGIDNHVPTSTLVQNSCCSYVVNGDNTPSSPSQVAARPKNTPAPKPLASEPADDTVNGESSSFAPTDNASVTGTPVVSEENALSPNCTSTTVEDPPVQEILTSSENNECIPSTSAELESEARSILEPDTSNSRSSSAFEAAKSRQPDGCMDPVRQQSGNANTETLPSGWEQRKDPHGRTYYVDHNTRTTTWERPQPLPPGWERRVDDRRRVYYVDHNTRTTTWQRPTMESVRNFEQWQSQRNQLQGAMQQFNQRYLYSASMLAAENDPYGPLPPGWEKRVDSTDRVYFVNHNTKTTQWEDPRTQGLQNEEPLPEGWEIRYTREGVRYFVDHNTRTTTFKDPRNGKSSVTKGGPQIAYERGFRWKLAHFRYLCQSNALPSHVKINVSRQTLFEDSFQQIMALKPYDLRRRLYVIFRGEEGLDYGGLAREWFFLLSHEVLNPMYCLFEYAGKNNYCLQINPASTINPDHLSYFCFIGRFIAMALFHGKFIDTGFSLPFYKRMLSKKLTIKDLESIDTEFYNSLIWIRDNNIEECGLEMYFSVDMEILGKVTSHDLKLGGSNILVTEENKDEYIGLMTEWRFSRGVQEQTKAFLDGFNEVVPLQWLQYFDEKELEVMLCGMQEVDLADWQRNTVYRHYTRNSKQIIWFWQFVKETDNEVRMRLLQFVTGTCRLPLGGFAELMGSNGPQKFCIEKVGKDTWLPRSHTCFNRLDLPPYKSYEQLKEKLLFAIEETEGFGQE

binding affinity for WWP1 compared to NEDD4-1 (WWP1; MST Kd for WWP1 versus literature Kd for NEDD4-1): significantly stronger binding affinity
Kd (WWP1; MST binding analysis, read-out: dissociation constant (Kd) of I3C binding to WWP1): ~120 nM
Structure (SMILES): OCc1c[nH]c2ccccc12 [I3C, indole-3-carbinol]
cell growth (PC3 cells (PTEN-null)): only modestly suppressed cell growth
effects on AKT suppression and apoptosis [1]: only negligible effects
sensitivity of Wwp1−/− cells to I3C treatment compared to Wwp1+/+ cells [2]: more resistant
cell growth (LNCaP cells (PTEN-null)): only modestly suppressed cell growth
